Data published in patent publication US6706663B2, “Herbicidal 3-heterocyclic substituted benzisothiazole and benzisoxazole compounds” (Wyeth, priority 2000, dated 2004).

Key:
[1] = tested on: IPOHE (Ipomoea hederacea); experiment: Postemergence herbicidal evaluation; assay type: in vivo, (L.) Jacq.; conditions: postemergence
In short: (§1)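 Visual 0–9 injury scores versus control plants, covering stand, vigour, malformation, size, chlorosis and general appearance, taken four to five weeks post-spray and averaged over replicate tests. Plants were sprayed at roughly two weeks old and held on greenhouse benches.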

[2] = tested on: SAGPY (Sagittaria pygmaea); experiment: Flooded paddy, preemergence weed control; assay type: in vivo, L.; conditions: rated 3-4 weeks after treatment, 0-9 rating scale
In short: (§2)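 In this preemergence paddy assay, weed seeds or organs are sown at up to 0.5 cm in silt loam and covered by 1.5–3 cm of water for the full test period. After treatment the pots are kept in a greenhouse, and herbicidal effect is rated 0-9 visually against a control.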

[3] = tested on: TRZAWR (Wheat, Winter, cv Riband); experiment: Preemergence herbicidal evaluation; assay type: in vivo, Triticum aestivum; conditions: rated 4-5 weeks after treatment
In short: (§3)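 Visual 0-9 rating versus untreated control, taken four to five weeks post-treatment, scoring stand, vigor, malformation, size, chlorosis and overall appearance. Compound applied as aqueous acetone spray to freshly seeded soil cups, then kept under standard greenhouse care.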

[4] = tested on: CYPSE (Cyperus serotinus); experiment: Flooded paddy, preemergence weed control; assay type: in vivo, Rottb.; conditions: rated 3-4 weeks after treatment, 0-9 rating scale
In short: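 Herbicidal effect was scored visually on a 0–9 scale against an untreated control 3–4 weeks after treatment. Compounds were applied preemergence as 50/50 v/v aqueous/acetone mixtures into flood water (1.5–3 cm deep over silt loam), at roughly 0.0080 to 0.1250 kg/ha active ingredient.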

[5] = tested on: GLXMAW (Soybean, Williams); experiment: Postemergence herbicidal evaluation; assay type: in vivo, Glycine max, (L.) Merr. cv Williams; conditions: postemergence
In short: as §1

[6] = tested on: GLXMAW (Soybean, Williams); experiment: Preemergence herbicidal evaluation; assay type: in vivo, Glycine max, (L.) Merr. cv Williams; conditions: rated 4-5 weeks after treatment
[7] = tested on: ORYSAT (Rice, Tebonnet); experiment: Preemergence herbicidal evaluation; assay type: in vivo, Oryza sativa, (L.) Tebonnet; conditions: rated 4-5 weeks after treatment
[8] = tested on: CASOB (Cassia obtusifolia); experiment: Postemergence herbicidal evaluation; assay type: in vivo, L.; conditions: postemergence
In short: as §1

[9] = tested on: CHEAL (Chenopodium album); experiment: Postemergence herbicidal evaluation; assay type: in vivo, L.; conditions: postemergence
In short: as §1

[10] = tested on: AMBEL (Ambrosia artemisifolia); experiment: Postemergence herbicidal evaluation; assay type: in vivo, L.; conditions: postemergence
In short: as §1

[11] = tested on: ABUTH (Abutilon theophrasti); experiment: Postemergence herbicidal evaluation; assay type: in vivo, Medic.; conditions: postemergence
In short: as §1

[12] = tested on: CYPIR (Cyperus iria); experiment: Flooded paddy, preemergence weed control; assay type: in vivo; conditions: rated 3-4 weeks after treatment, 0-9 rating scale
In short: as §2

[13] = tested on: ZEAMX (Corn, Field); experiment: Preemergence herbicidal evaluation; assay type: in vivo, Zea mays, L.; conditions: rated 4-5 weeks after treatment
[14] = tested on: ECHORC (Echinochloa oryzoides); experiment: Flooded paddy, preemergence weed control; assay type: in vivo, Echinochloa oryzoides (Ard.) Fritsch.; conditions: rated 3-4 weeks after treatment, 0-9 rating scale
In short: as §2

[15] = tested on: IPOHE (Ipomoea hederacea); experiment: Preemergence herbicidal evaluation; assay type: in vivo, (L.) Jacq.; conditions: rated 4-5 weeks after treatment
[16] = tested on: GALAP (Galium aparine); experiment: Postemergence herbicidal evaluation; assay type: in vivo; conditions: postemergence
In short: as §1

[17] = tested on: CASOB (Cassia obtusifolia); experiment: Preemergence herbicidal evaluation; assay type: in vivo, L.; conditions: rated 4-5 weeks after treatment
In short: as §3

[18] = tested on: CHEAL (Chenopodium album); experiment: Preemergence herbicidal evaluation; assay type: in vivo, L.; conditions: rated 4-5 weeks after treatment
In short: as §3

[19] = tested on: AMBEL (Ambrosia artemisifolia); experiment: Preemergence herbicidal evaluation; assay type: in vivo, L.; conditions: rated 4-5 weeks after treatment
In short: as §3

[20] = tested on: ZEAMX (Corn, Field); experiment: Postemergence herbicidal evaluation; assay type: in vivo, Zea mays, L.; conditions: postemergence
In short: as §1

[21] = tested on: ECHCG (Echinochloa crus-galli); experiment: Postemergence herbicidal evaluation; assay type: in vivo, (L.) Beau; conditions: postemergence
In short: as §1

Cn1c(C(F)(F)F)cc(=O)n(-c2ccc3snc(-c4sccc4Cl)c3c2)c1=O [Compound 52, 3-[3-(3-chloro-2-thienyl)-1,2-benzisothiazol-5-yl]-1-methyl-6-(trifluoromethyl)uracil]
4.0: Preemergence herbicidal rating GLXMAW ([6]; Rate 0.1250 kg/ha) | Preemergence herbicidal rating CASOB ([17]; Rate 0.2500 kg/ha)
0.0: herbicidal rating, SAGPY ([2]; rate 0.0080 kg/ha) | ECHCG herbicidal rating ([21]; rate 0.0320 kg/ha)
7.0: GLXMAW herbicidal rating ([5]; rate 0.0620 kg/ha) | CASOB herbicidal rating ([8]; rate 0.0620 kg/ha) | Preemergence herbicidal rating ZEAMX ([13]; Rate 0.2500 kg/ha) | GALAP herbicidal rating ([16]; rate 0.1250 kg/ha)
1.0: Preemergence herbicidal rating TRZAWR ([3]; Rate 0.0620 kg/ha) | Preemergence herbicidal rating TRZAWR ([3]; Rate 0.1250 kg/ha) | Preemergence herbicidal rating ORYSAT ([7]; Rate 0.0620 kg/ha) | CASOB herbicidal rating ([8]; rate 0.0320 kg/ha) | Preemergence herbicidal rating CASOB ([17]; Rate 0.0620 kg/ha) | Preemergence herbicidal rating CASOB ([17]; Rate 0.1250 kg/ha) | ECHCG herbicidal rating ([21]; rate 0.0620 kg/ha)
5.0: CHEAL herbicidal rating ([9]; rate 0.0320 kg/ha) | CHEAL herbicidal rating ([9]; rate 0.0620 kg/ha) | GALAP herbicidal rating ([16]; rate 0.0320 kg/ha) | ZEAMX herbicidal rating ([20]; rate 0.1250 kg/ha) | ECHCG herbicidal rating ([21]; rate 0.1250 kg/ha)
3.5: Preemergence herbicidal rating ORYSAT ([7]; Rate 0.2500 kg/ha) | Preemergence herbicidal rating ZEAMX ([13]; Rate 0.1250 kg/ha) | Preemergence herbicidal rating AMBEL ([19]; Rate 0.0620 kg/ha) | ZEAMX herbicidal rating ([20]; rate 0.0320 kg/ha) | ZEAMX herbicidal rating ([20]; rate 0.0620 kg/ha)
1.5: Preemergence herbicidal rating GLXMAW ([6]; Rate 0.0620 kg/ha) | Preemergence herbicidal rating ORYSAT ([7]; Rate 0.1250 kg/ha) | Preemergence herbicidal rating ZEAMX ([13]; Rate 0.0620 kg/ha)
2.0: Preemergence herbicidal rating IPOHE ([15]; Rate 0.0620 kg/ha)
7.5: GLXMAW herbicidal rating ([5]; rate 0.0320 kg/ha)
8.0: CASOB herbicidal rating ([8]; rate 0.1250 kg/ha)
8.5: GLXMAW herbicidal rating ([5]; rate 0.1250 kg/ha) | herbicidal rating, ECHORC ([14]; rate 0.0080 kg/ha) | Preemergence herbicidal rating AMBEL ([19]; Rate 0.1250 kg/ha)
7.7: herbicidal rating, SAGPY ([2]; rate 0.1250 kg/ha)
3.0: Preemergence herbicidal rating TRZAWR ([3]; Rate 0.2500 kg/ha) | Preemergence herbicidal rating IPOHE ([15]; Rate 0.1250 kg/ha) | GALAP herbicidal rating ([16]; rate 0.0620 kg/ha)
9.0: IPOHE herbicidal rating ([1]; rate 0.0320 kg/ha) | IPOHE herbicidal rating ([1]; rate 0.0620 kg/ha) | IPOHE herbicidal rating ([1]; rate 0.1250 kg/ha) | herbicidal rating, CYPSE ([4]; rate 0.0320 kg/ha) | herbicidal rating, CYPSE ([4]; rate 0.1250 kg/ha) | Preemergence herbicidal rating GLXMAW ([6]; Rate 0.2500 kg/ha) | CHEAL herbicidal rating ([9]; rate 0.1250 kg/ha) | AMBEL herbicidal rating ([10]; rate 0.0320 kg/ha) | AMBEL herbicidal rating ([10]; rate 0.0620 kg/ha) | AMBEL herbicidal rating ([10]; rate 0.1250 kg/ha) | ABUTH herbicidal rating ([11]; rate 0.0320 kg/ha) | ABUTH herbicidal rating ([11]; rate 0.0620 kg/ha) | ABUTH herbicidal rating ([11]; rate 0.1250 kg/ha) | herbicidal rating, CYPIR ([12]; rate 0.0080 kg/ha) | herbicidal rating, CYPIR ([12]; rate 0.0320 kg/ha) | herbicidal rating, CYPIR ([12]; rate 0.1250 kg/ha) | herbicidal rating, ECHORC ([14]; rate 0.0320 kg/ha) | herbicidal rating, ECHORC ([14]; rate 0.1250 kg/ha) | Preemergence herbicidal rating CHEAL ([18]; Rate 0.0620 kg/ha) | Preemergence herbicidal rating CHEAL ([18]; Rate 0.1250 kg/ha) | Preemergence herbicidal rating CHEAL ([18]; Rate 0.2500 kg/ha) | Preemergence herbicidal rating AMBEL ([19]; Rate 0.2500 kg/ha)
6.0: Preemergence herbicidal rating IPOHE ([15]; Rate 0.2500 kg/ha)
3.7: herbicidal rating, SAGPY ([2]; rate 0.0320 kg/ha)
